Measurements from patent publication US12433835B2, “Cosmetic composition and treatment for treating skin sagging” (Sederma, priority 2020, dated 2025).

Tested on: Fibroblasts
Assay: Contraction of collagen lattice by MGO-stressed fibroblasts
Format: cell-based
Conditions: MGO contact 2 days, with or without extract at 0.5%; control without MGO = 100%; n=3
Description: The contraction function of fibroblasts is important for ensuring a good elasticity to the skin. The application on fibroblasts of the glycating substance (MGO: methylglyoxal) allows to mimic in accelerate the loss of contractility of fibroblasts occurring during aging. Fibroblasts were brought into contact with the MGO for 2 days, in nontoxic quantity, with or without the extract according to the invention. After this contact, the cells were included in a collagen gel to form a dermis equivalent called lattice. Fibroblasts anchor themselves to the collagens and begin to contract the gel like they do in the skin. This contraction was followed after 16 h and measured using an ImageQuant LAS4000 imager by following the modification on the gel surface.

For CC(=O)C=O [MGO, methylglyoxal], the “Gel contraction at 16 h (%)” value was 59.9%.
